According to ChEMBL document CHEMBL1275557, “First countrywide survey of acquired metallo-beta-lactamases in gram-negative pathogens in Italy” (2008):
In brackets after ≈: the same amount, converted by molar mass.

What was measured:
Assay type in all cases: functional
Enterobacter cloacae [1] = test: Antibacterial activity against VIM-1 producing Enterobacter cloacae isolate TO-16X-51 by Etest method
Pseudomonas aeruginosa [2] = test: Antibacterial activity against VIM-2 producing Pseudomonas aeruginosa clone B3 isolate PV-05X-07 by Etest method in presence of Tazobactam
Pseudomonas aeruginosa [3] = test: Antibacterial activity against VIM-1 producing Pseudomonas aeruginosa clone E isolate VA-06X-29 by Etest method
Pseudomonas aeruginosa [4] = test: Antibacterial activity against IMP-13 producing Pseudomonas aeruginosa clone C3 isolate PG-12X-03 by Etest method
Pseudomonas aeruginosa [5] = test: Antibacterial activity against VIM-1 producing Pseudomonas aeruginosa clone A1 isolate FG-17X-14 by Etest method
Pseudomonas aeruginosa [6] = test: Antibacterial activity against IMP-13 producing Pseudomonas aeruginosa clone C2 isolate NA-14X-02 by Etest method
Pseudomonas aeruginosa [7] = test: Antibacterial activity against VIM-1 producing Pseudomonas aeruginosa clone D2 isolate VA-06X-16 by Etest method in presence of Tazobactam
Pseudomonas aeruginosa [8] = test: Antibacterial activity against VIM-1 producing Pseudomonas aeruginosa clone D2 isolate VA-06X-16 by Etest method
Pseudomonas aeruginosa [9] = test: Antibacterial activity against VIM-2 producing Pseudomonas aeruginosa clone B2 isolate VA-06X-28 by Etest method
Pseudomonas aeruginosa [10] = test: Antibacterial activity against VIM-1 producing Pseudomonas aeruginosa clone D1 isolate VA-06X-63 by Etest method
Pseudomonas aeruginosa [11] = test: Antibacterial activity against VIM-2 producing Pseudomonas aeruginosa clone B2 isolate VA-06X-38 by Etest method
Pseudomonas aeruginosa [12] = test: Antibacterial activity against VIM-2 producing Pseudomonas aeruginosa clone B1 isolate SS-09X-45 by Etest method
Pseudomonas aeruginosa [13] = test: Antibacterial activity against VIM-1 producing Pseudomonas aeruginosa clone A2 isolate NA-14X-32 by Etest method in presence of Tazobactam
Pseudomonas aeruginosa [14] = test: Antibacterial activity against VIM-1 producing Pseudomonas aeruginosa clone A2 isolate NA-14X-21 by Etest method in presence of Tazobactam
Pseudomonas aeruginosa [15] = test: Antibacterial activity against metallo-beta-lactamase positive Pseudomonas aeruginosa assessed as percent susceptible isolates by Etest method in presence of Tazobactam
Pseudomonas aeruginosa [16] = test: Antibacterial activity against VIM-2 producing Pseudomonas aeruginosa clone B3 isolate PV-05X-02 by Etest method in presence of Tazobactam
Pseudomonas aeruginosa [17] = test: Antibacterial activity against VIM-1 producing Pseudomonas aeruginosa clone D isolate VA-06X-69 by Etest method in presence of Tazobactam
Pseudomonas aeruginosa [18] = test: Antibacterial activity against VIM-2 producing Pseudomonas aeruginosa clone B3 isolate PV-05X-02 by Etest method
Pseudomonas aeruginosa [19] = test: Antibacterial activity against VIM-1 producing Pseudomonas aeruginosa clone D4 isolate VA-06X-47 by Etest method in presence of Tazobactam
Pseudomonas aeruginosa [20] = test: Antibacterial activity against VIM-2 producing Pseudomonas aeruginosa clone B3 isolate PV-05X-07 by Etest method
Pseudomonas aeruginosa [21] = test: Antibacterial activity against IMP-13 producing Pseudomonas aeruginosa clone C1 isolate AV-13X-28 by Etest method in presence of Tazobactam
Pseudomonas aeruginosa [22] = test: Antibacterial activity against IMP-13 producing Pseudomonas aeruginosa clone C2 isolate NA-14X-11 by Etest method in presence of Tazobactam
Pseudomonas aeruginosa [23] = test: Antibacterial activity against IMP-13 producing Pseudomonas aeruginosa clone C2 isolate NA-14X-12 by Etest method
Pseudomonas aeruginosa [24] = test: Antibacterial activity against VIM-1 producing Pseudomonas aeruginosa clone A2 isolate NA-14X-26 by Etest method
Pseudomonas aeruginosa [25] = test: Antibacterial activity against VIM-1 producing Pseudomonas aeruginosa clone D3 isolate VA-06X-65 by Etest method
Pseudomonas aeruginosa [26] = test: Antibacterial activity against VIM-1 producing Pseudomonas aeruginosa clone A3 isolate FG-17X-08 by Etest method
Pseudomonas aeruginosa [27] = test: Antibacterial activity against VIM-1 producing Pseudomonas aeruginosa clone A3 isolate FG-17X-08 by Etest method in presence of Tazobactam
Pseudomonas aeruginosa [28] = test: Antibacterial activity against VIM-2 producing Pseudomonas aeruginosa clone B3 isolate CR-04X-14 by Etest method in presence of Tazobactam
Pseudomonas aeruginosa [29] = test: Antibacterial activity against VIM-1 producing Pseudomonas aeruginosa clone D3 isolate VA-06X-65 by Etest method in presence of Tazobactam
Pseudomonas aeruginosa [30] = test: Antibacterial activity against VIM-1 producing Pseudomonas aeruginosa clone A2 isolate NA-14X-21 by Etest method
Pseudomonas aeruginosa [31] = test: Antibacterial activity against IMP-13 producing Pseudomonas aeruginosa clone C2 isolate NA-14X-10 by Etest method
Pseudomonas aeruginosa [32] = test: Antibacterial activity against VIM-1 producing Pseudomonas aeruginosa clone D2 isolate VA-06X-17 by Etest method in presence of Tazobactam
Pseudomonas aeruginosa [33] = test: Antibacterial activity against VIM-2 producing Pseudomonas aeruginosa clone B2 isolate VA-06X-20 by Etest method in presence of Tazobactam
Pseudomonas aeruginosa [34] = test: Antibacterial activity against VIM-2 producing Pseudomonas aeruginosa clone B2 isolate VA-06X-28 by Etest method in presence of Tazobactam
Pseudomonas aeruginosa [35] = test: Antibacterial activity against IMP-13 producing Pseudomonas aeruginosa clone C3 isolate PG-12X-03 by Etest method in presence of Tazobactam
Pseudomonas aeruginosa [36] = test: Antibacterial activity against VIM-1 producing Pseudomonas aeruginosa clone D isolate VA-06X-69 by Etest method
Pseudomonas aeruginosa [37] = test: Antibacterial activity against IMP-13 producing Pseudomonas aeruginosa clone C2 isolate NA-14X-10 by Etest method in presence of Tazobactam
Pseudomonas aeruginosa [38] = test: Antibacterial activity against VIM-1 producing Pseudomonas aeruginosa clone E isolate VA-06X-29 by Etest method in presence of Tazobactam
Pseudomonas aeruginosa [39] = test: Antibacterial activity against VIM-2 producing Pseudomonas aeruginosa clone B2 isolate VA-06X-20 by Etest method
Pseudomonas aeruginosa [40] = test: Antibacterial activity against VIM-1 producing Pseudomonas aeruginosa clone A3 isolate NA-14X-34 by Etest method in presence of Tazobactam
Pseudomonas aeruginosa [41] = test: Antibacterial activity against VIM-1 producing Pseudomonas aeruginosa clone G isolate NA-14X-13 by Etest method
Pseudomonas aeruginosa [42] = test: Antibacterial activity against VIM-2 producing Pseudomonas aeruginosa clone B2 isolate VA-06X-38 by Etest method in presence of Tazobactam
Pseudomonas putida [43] = test: Antibacterial activity against VIM-1 producing Pseudomonas putida isolate RM-11X-11 by Etest method in presence of Tazobactam
Pseudomonas aeruginosa [44] = test: Antibacterial activity against VIM-1 producing Pseudomonas aeruginosa clone G isolate NA-14X-13 by Etest method in presence of Tazobactam
Pseudomonas aeruginosa [45] = test: Antibacterial activity against VIM-1 producing Pseudomonas aeruginosa clone F isolate RM-11X-09 by Etest method in presence of Tazobactam
Pseudomonas aeruginosa [46] = test: Antibacterial activity against VIM-1 producing Pseudomonas aeruginosa clone D4 isolate VA-06X-47 by Etest method
Pseudomonas aeruginosa [47] = test: Antibacterial activity against IMP-13 producing Pseudomonas aeruginosa clone C1 isolate AV-13X-28 by Etest method
Enterobacter cloacae [48] = test: Antibacterial activity against VIM-1 producing Enterobacter cloacae isolate TO-16X-51 by Etest method in presence of Tazobactam
Pseudomonas aeruginosa [49] = test: Antibacterial activity against IMP-13 producing Pseudomonas aeruginosa clone C2 isolate NA-14X-11 by Etest method
Pseudomonas aeruginosa [50] = test: Antibacterial activity against IMP-13 producing Pseudomonas aeruginosa clone C2 isolate NA-14X-12 by Etest method in presence of Tazobactam
Pseudomonas aeruginosa [51] = test: Antibacterial activity against VIM-1 producing Pseudomonas aeruginosa clone A2 isolate NA-14X-26 by Etest method in presence of Tazobactam
Pseudomonas aeruginosa [52] = test: Antibacterial activity against VIM-1 producing Pseudomonas aeruginosa clone F isolate RM-11X-09 by Etest method
Pseudomonas aeruginosa [53] = test: Antibacterial activity against IMP-13 producing Pseudomonas aeruginosa clone C2 isolate NA-14X-02 by Etest method in presence of Tazobactam
Pseudomonas aeruginosa [54] = test: Antibacterial activity against VIM-1 producing Pseudomonas aeruginosa clone D2 isolate VA-06X-17 by Etest method
Pseudomonas aeruginosa [55] = test: Antibacterial activity against VIM-2 producing Pseudomonas aeruginosa clone B3 isolate CR-04X-14 by Etest method
Pseudomonas putida [56] = test: Antibacterial activity against VIM-1 producing Pseudomonas putida isolate RM-11X-11 by Etest method
Pseudomonas aeruginosa [57] = test: Antibacterial activity against VIM-1 producing Pseudomonas aeruginosa clone A1 isolate FG-17X-14 by Etest method in presence of Tazobactam
Pseudomonas aeruginosa [58] = test: Antibacterial activity against VIM-1 producing Pseudomonas aeruginosa clone D1 isolate VA-06X-63 by Etest method in presence of Tazobactam
Pseudomonas aeruginosa [59] = test: Antibacterial activity against VIM-2 producing Pseudomonas aeruginosa clone B1 isolate SS-09X-45 by Etest method in presence of Tazobactam
Pseudomonas aeruginosa [60] = test: Antibacterial activity against VIM-1 producing Pseudomonas aeruginosa clone A3 isolate NA-14X-34 by Etest method
Pseudomonas aeruginosa [61] = test: Antibacterial activity against VIM-1 producing Pseudomonas aeruginosa clone A2 isolate NA-14X-32 by Etest method

## CCN1CCN(C(=O)N[C@@H](C(=O)N[C@@H]2C(=O)N3[C@@H]2SC(C)(C)[C@@H]3C(=O)O)c2ccccc2)C(=O)C1=O [PIPERACILLIN]
Enterobacter cloacae [1]
  MIC: > 128 mg/L
Pseudomonas aeruginosa [2]
  MIC: 32 mg/L
Pseudomonas aeruginosa [3]
  MIC: > 128 mg/L
Pseudomonas aeruginosa [4]
  MIC: 16 mg/L (≈ 30.9 µM)
Pseudomonas aeruginosa [5]
  MIC: > 128 mg/L
Pseudomonas aeruginosa [6]
  MIC: 24 mg/L (≈ 46.4 µM)
Pseudomonas aeruginosa [7]
  MIC: > 128 mg/L
Pseudomonas aeruginosa [8]
  MIC: > 128 mg/L
Pseudomonas aeruginosa [9]
  MIC: 64 mg/L (≈ 124 µM)
Pseudomonas aeruginosa [10]
  MIC: > 128 mg/L
Pseudomonas aeruginosa [11]
  MIC: 32 mg/L (≈ 61.8 µM)
Pseudomonas aeruginosa [12]
  MIC: > 128 mg/L
Pseudomonas aeruginosa [13]
  MIC: > 128 mg/L
Pseudomonas aeruginosa [14]
  MIC: > 128 mg/L
Pseudomonas aeruginosa [15]
  Activity: 39%
Pseudomonas aeruginosa [16]
  MIC: 32 mg/L
Pseudomonas aeruginosa [17]
  MIC: > 128 mg/L
Pseudomonas aeruginosa [18]
  MIC: 48 mg/L (≈ 92.7 µM)
Pseudomonas aeruginosa [19]
  MIC: > 128 mg/L
Pseudomonas aeruginosa [20]
  MIC: 48 mg/L (≈ 92.7 µM)
Pseudomonas aeruginosa [21]
  MIC: 16 mg/L
Pseudomonas aeruginosa [22]
  MIC: 16 mg/L
Pseudomonas aeruginosa [23]
  MIC: 16 mg/L (≈ 30.9 µM)
Pseudomonas aeruginosa [24]
  MIC: > 128 mg/L
Pseudomonas aeruginosa [25]
  MIC: > 128 mg/L
Pseudomonas aeruginosa [26]
  MIC: > 128 mg/L
Pseudomonas aeruginosa [27]
  MIC: > 128 mg/L
Pseudomonas aeruginosa [28]
  MIC: > 128 mg/L
Pseudomonas aeruginosa [29]
  MIC: > 128 mg/L
Pseudomonas aeruginosa [30]
  MIC: > 128 mg/L
Pseudomonas aeruginosa [31]
  MIC: 16 mg/L (≈ 30.9 µM)
Pseudomonas aeruginosa [32]
  MIC: > 128 mg/L
Pseudomonas aeruginosa [33]
  MIC: 48 mg/L
Pseudomonas aeruginosa [34]
  MIC: 48 mg/L
Pseudomonas aeruginosa [35]
  MIC: 16 mg/L
Pseudomonas aeruginosa [36]
  MIC: > 128 mg/L
Pseudomonas aeruginosa [37]
  MIC: 16 mg/L
Pseudomonas aeruginosa [38]
  MIC: > 128 mg/L
Pseudomonas aeruginosa [39]
  MIC: 64 mg/L (≈ 124 µM)
Pseudomonas aeruginosa [40]
  MIC: > 128 mg/L
Pseudomonas aeruginosa [41]
  MIC: > 128 mg/L
Pseudomonas aeruginosa [42]
  MIC: 32 mg/L
Pseudomonas putida [43]
  MIC: > 128 mg/L
Pseudomonas aeruginosa [44]
  MIC: > 128 mg/L
Pseudomonas aeruginosa [45]
  MIC: > 128 mg/L
Pseudomonas aeruginosa [46]
  MIC: > 128 mg/L
Pseudomonas aeruginosa [47]
  MIC: 24 mg/L (≈ 46.4 µM)
Enterobacter cloacae [48]
  MIC: > 128 mg/L
Pseudomonas aeruginosa [49]
  MIC: 16 mg/L (≈ 30.9 µM)
Pseudomonas aeruginosa [50]
  MIC: 16 mg/L
Pseudomonas aeruginosa [51]
  MIC: > 128 mg/L
Pseudomonas aeruginosa [52]
  MIC: > 128 mg/L
Pseudomonas aeruginosa [53]
  MIC: 16 mg/L
Pseudomonas aeruginosa [54]
  MIC: > 128 mg/L
Pseudomonas aeruginosa [55]
  MIC: > 128 mg/L
Pseudomonas putida [56]
  MIC: > 128 mg/L
Pseudomonas aeruginosa [57]
  MIC: > 128 mg/L
Pseudomonas aeruginosa [58]
  MIC: > 128 mg/L
Pseudomonas aeruginosa [59]
  MIC: > 128 mg/L
Pseudomonas aeruginosa [60]
  MIC: > 128 mg/L
Pseudomonas aeruginosa [61]
  MIC: > 128 mg/L
